Consider one compound from article PMC9837035 (Nature Communications, 2023).

Assay [1] relates to H3K9me2 in peripheral blood. The assay can be described thus: H3K9me2 levels in peripheral blood of treated mice. Type of assay: in vivo. The method, then: Preparation of cell lysates and western blotting were performed as described previously. Protein from cells lysates in lysis buffer (50 mM Tris-HCl (pH 7.5), 150 mM NaCl, 5 mM EDTA, 0.1% NP-40, 1 mM dithiothreitol) were separated by sodium dodecyl sulfate–polyacrylamide gel electrophoresis (SDS-PAGE) and transferred to a polyvinylidene difluoride (PVDF) membrane (Millipore) by electroblotting. The membranes incubated with primary antibodies overnight at 4 °C and secondary antibodies for 1 h at room temperature. The immune complexes were detected with the Immobilon Western Chemiluminescent HRP Substrate (Millipore). Luminescence was analyzed on a FUSION SOLO S (Vilber). Western blot bands were visualized using Evolution Capt software (M&S Instruments Inc.). Primary antibodies used were anti-G9a (1:1000, CST, #3306), anti–α-tubulin (1:5000, Abcam, ab18251), anti-H3K9me2 (1:3000, Abcam, ab1220), anti-H3 (1:5000, Abcam, ab1791), anti-H3K27me3 (1:3000, Sigma, 07-449), anti-GLP (1:1000, CST, #35005), anti-FLAG (100 ng/ml, Fujifilm, 01422383), anti-His (1:5000, MBL, PM032), anti-BCL11A (1:1000, abcam, ab19487), anti-ZBTB7A (1:1000, CST, #50565), anti-CHD3 (1:1000, Novus Biologicals, NB100-60412), and anti-CHD4 (1:1000, abcam, ab240640). […]
The dosing solution contained 15% DMSO, 17.5% Cremophor EL, 8.75% EtOH, 8.75% HCO-40, and 50% PBS. […] The weight of each mouse was measured every 3 or 4 days.

The target of assay [2] is T1, PRMT1 (Homo sapiens, UniProt Q99873).
T1 sequence (Q99873 whole entry): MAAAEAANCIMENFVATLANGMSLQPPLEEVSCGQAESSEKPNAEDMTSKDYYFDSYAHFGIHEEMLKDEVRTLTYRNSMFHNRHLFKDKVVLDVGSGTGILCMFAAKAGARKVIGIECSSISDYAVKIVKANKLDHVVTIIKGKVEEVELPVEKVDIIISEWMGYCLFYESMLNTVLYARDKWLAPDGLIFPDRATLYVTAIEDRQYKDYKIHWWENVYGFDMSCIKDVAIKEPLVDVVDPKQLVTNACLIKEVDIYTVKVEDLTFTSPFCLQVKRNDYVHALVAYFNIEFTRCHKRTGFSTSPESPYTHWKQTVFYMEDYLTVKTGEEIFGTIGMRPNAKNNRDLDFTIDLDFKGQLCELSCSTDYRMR
Another assay deals with T2, G9a (Homo sapiens, UniProt Q96KQ7).
T2 sequence (Q96KQ7 1-1210): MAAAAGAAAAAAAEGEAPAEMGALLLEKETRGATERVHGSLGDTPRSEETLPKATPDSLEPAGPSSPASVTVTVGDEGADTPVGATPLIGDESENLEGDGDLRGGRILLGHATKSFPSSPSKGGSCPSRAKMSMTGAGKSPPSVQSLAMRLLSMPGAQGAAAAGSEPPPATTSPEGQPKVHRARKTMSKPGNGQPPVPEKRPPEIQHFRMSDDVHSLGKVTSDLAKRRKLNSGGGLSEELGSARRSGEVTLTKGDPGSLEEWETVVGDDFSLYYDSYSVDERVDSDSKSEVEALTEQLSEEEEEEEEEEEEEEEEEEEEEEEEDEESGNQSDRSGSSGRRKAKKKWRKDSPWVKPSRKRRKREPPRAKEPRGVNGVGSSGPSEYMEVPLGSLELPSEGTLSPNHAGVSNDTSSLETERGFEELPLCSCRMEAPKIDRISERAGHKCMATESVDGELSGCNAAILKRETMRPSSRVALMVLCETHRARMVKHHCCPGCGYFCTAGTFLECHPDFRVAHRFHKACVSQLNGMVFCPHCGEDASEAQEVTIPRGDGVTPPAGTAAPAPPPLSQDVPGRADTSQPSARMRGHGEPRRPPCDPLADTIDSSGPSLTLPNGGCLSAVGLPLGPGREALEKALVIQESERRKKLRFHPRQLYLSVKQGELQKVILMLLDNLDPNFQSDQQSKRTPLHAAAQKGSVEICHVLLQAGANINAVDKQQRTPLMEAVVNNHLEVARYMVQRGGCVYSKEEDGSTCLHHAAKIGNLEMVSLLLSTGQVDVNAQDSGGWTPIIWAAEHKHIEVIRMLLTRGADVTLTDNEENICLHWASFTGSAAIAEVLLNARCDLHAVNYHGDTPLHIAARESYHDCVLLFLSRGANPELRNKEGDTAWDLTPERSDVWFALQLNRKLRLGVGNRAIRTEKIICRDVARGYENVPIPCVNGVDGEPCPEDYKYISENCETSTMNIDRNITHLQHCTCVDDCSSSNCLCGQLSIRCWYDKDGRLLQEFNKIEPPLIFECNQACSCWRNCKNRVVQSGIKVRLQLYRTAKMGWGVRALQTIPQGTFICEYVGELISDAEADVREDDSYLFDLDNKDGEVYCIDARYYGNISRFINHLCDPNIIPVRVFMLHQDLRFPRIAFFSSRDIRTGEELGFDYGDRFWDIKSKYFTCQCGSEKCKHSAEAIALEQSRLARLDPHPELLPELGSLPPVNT
The assay can be described thus: biochemical.

In another assay the target is T3, PRDM9 (Homo sapiens, UniProt Q9NQV7).
T3 construct: purchased Reaction Biology
T3 sequence (Q9NQV7 whole entry): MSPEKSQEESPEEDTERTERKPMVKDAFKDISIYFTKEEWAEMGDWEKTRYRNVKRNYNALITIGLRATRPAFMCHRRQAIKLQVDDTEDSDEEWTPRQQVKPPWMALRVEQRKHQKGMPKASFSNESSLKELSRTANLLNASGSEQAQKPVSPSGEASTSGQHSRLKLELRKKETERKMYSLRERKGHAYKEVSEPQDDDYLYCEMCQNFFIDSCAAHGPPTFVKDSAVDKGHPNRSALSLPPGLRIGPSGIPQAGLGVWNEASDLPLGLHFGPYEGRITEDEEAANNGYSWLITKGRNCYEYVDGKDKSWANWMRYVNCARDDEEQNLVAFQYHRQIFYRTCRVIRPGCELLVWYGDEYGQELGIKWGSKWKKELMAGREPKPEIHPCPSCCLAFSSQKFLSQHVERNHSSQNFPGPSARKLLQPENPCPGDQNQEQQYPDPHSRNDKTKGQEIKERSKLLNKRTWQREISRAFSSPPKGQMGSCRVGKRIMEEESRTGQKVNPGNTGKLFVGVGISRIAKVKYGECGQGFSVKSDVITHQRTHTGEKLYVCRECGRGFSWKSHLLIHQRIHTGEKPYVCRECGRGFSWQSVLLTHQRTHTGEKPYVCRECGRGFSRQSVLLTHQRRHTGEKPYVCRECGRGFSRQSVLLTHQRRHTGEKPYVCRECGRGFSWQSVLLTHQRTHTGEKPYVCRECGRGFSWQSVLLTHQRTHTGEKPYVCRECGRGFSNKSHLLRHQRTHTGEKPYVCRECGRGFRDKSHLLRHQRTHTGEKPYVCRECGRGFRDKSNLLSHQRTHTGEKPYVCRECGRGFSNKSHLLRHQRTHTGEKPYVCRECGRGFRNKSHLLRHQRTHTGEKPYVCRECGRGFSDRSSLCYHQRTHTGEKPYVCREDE
Description: Radioisotope-based methyltransferase assay (selectivity). It is filed as biochemical. Conditions: read-out: IC50.

In assay [3] the target is T1, PRMT1. Described as above.

Several values for one entry are separate records, joined by “and”; a condition that tells them apart may be missing. Identical values can stand only once. Like-named read-outs stand apart in the source and are kept apart here. Some results are limits rather than exact numbers.

As to `Cc1c(C(=O)NC(CCC2CC2)C(=O)Nc2ccc(C#N)cc2)[nH]c2c1C(=O)CC(C)(C)C2` (stereo not drawn) [RK-701], in assay [1], the “H3K9me2 levels in peripheral blood cells” value was “significant decrease”. The IC50 was > 100 µM on PRMT1 [2]; 0.0218 µM and 0.0239 µM against G9a; > 100 µM at PRDM9 (PRDM9, 1 μM SAM); > 100 µM on PRDM9 (PRDM9, RK-701 in duplicate); > 100 µM against PRMT1 [3].

As a reminder, the IC50 is the concentration needed to halve the response being measured.
